# Experimental data from patent US8268809B2, “Kinase inhibitors for preventing or treating pathogen infection and method of use thereof” (priority 2006, dated 2012).
# Entries after “also recorded” stand apart in the source; their conditions may differ.
# System: vaccinia virus
# Type: cell-based
# Throughout, for VACCINIA PLAQUE ASSAY 2: test concentration or dose not given here.
Structure (SMILES),Class category of infected monolayers in plaque assay,"Plaque phenotype due to drug treatment (FIGS. 1, 2, 4)",VACCINIA PLAQUE ASSAY 2,VACCINIA Plaque Assay
Cc1ccc(-n2c(=O)[nH]c3c(C(N)=O)nc(-c4c(F)cc(Cl)cc4F)nc32)cc1 [dm-I-187],Class III,small plaques with no comets; also recorded: smaller (pinpoint) plaques with no comets,NO PLAQUES,SMALL PLAQUES
COC(=O)c1ccc(-c2cc(Nc3ccccc3OC)ncn2)cc1OC [Eph2_wbz 211],Class II,,SLIGHTLY SMALLER PLAQUES,SMALL PLAQUES Comets?
Fc1ccc(CNc2nccn3c(Br)cnc23)cc1 [LG2-91],Class III,no pinpoint plaque formed; also recorded: no plaques,NO PLAQUES,NO PLAQUES
O=C(c1ccccc1)c1ccc(-c2ccc3c(-c4ccc(Br)cc4F)n[nH]c3n2)cc1 [APcK-39],,,NO PLAQUES,
COc1ccccc1NS(=O)(=O)c1cccc(Nc2cc(-c3ccc(OC(C)=O)cc3)ncn2)c1 [Eph2_wbz 105],Class III,small plaques with comets,NO PLAQUES,SMALLER PLAQUES THAN WT
O=C(c1ccccc1)c1ccc(-c2ccc3c(-c4ccc(Br)c(F)c4)n[nH]c3n2)cc1 [APcK-38],,,NO PLAQUES,
COc1ccc(Nc2nccn3c(Br)cnc23)cc1 [LG2-9],Class III,,PINPOINTS,SLIGHTLY SMALLER PLAQUES
CCOC(=O)c1ccc(-c2ccc3c(-c4ccc(Cl)c(F)c4)n[nH]c3n2)cc1 [APcK-49],,,SMALL PLAQUES,
COc1ccccc1NS(=O)(=O)c1cccc(Nc2cc(-c3ccc(C(C)=O)cc3)ncn2)c1 [Eph2_wbz 110],Class III,pinpoint plaque formations; also recorded: pinpoint plaques,PINPOINT,PINPOINT PLAQUES
Cn1c(=O)c(-c2c(Cl)cccc2Cl)cc2cnc(Nc3cccc(C(C)(C)C)c3)nc21 [YYA195],Class III,,NO PLAQUES,NO PLAQUES
CCOC(=O)c1ccc(-c2ccc3c(-c4ccc(C(=O)OC)cc4)n[nH]c3n2)cc1 [APcK-32],,small plaque and large comets; also recorded: small plaques with large comets,,LARGE COMETS
NC(=O)c1cccc(-c2ccc3c(-c4ccc(F)cc4)n[nH]c3n2)c1 [APcK-115],,,SMALL PLAQUES,
CCOC(=O)c1ccc(-c2n[nH]c3nc(-c4ccc(NC(C)=O)cc4)ccc23)cc1 [APcK-19],,,SMALL PLAQUES,
COc1cc(OC)cc(-c2ccc3c(-c4ccc(F)cc4)n[nH]c3n2)c1 [APcK-110],Class II,,SMALL PLAQUES,"SMALL PLAQUES, SEE LOTS OF SATELLITE PLAQUES"
Cn1c(=O)c(-c2c(Cl)cccc2Cl)cc2cnc(Nc3ccc(O)cc3)nc21 [YYA190],,,,"CPE (MONO- LAYER NOT INFECTED WITH VV; DRUG DE- STROYED MONO- LAYER, THOUGH)"
Brc1cnc2c(NCC3CC3)nccn12 [LG2-101],Class III,,PINPOINTS,"SMALL PLAQUES, WITH TAILS"
COc1ccccc1NS(=O)(=O)c1cccc(Nc2cc(-c3ccc(O)cc3)ncn2)c1 [Eph2_wbz 102],Class III,,no plaques,NO PLAQUES
COc1ccccc1Nc1cc(-c2ccc(NC(=O)CCC(=O)O)cc2)ncn1 [Eph2_wbz 217],,,,SLIGHTLY SMALLER PLAQUES
Brc1cnc2c(NCc3cccs3)nccn12 [LG2-95],Class III,,NO PLAQUES,PINPOINT PLAQUES
CC(=O)Nc1cccc(-c2ccc3c(-c4ccc(Br)cc4F)n[nH]c3n2)c1 [APcK-41],,,NO PLAQUES,
CCOC(=O)c1ccc(-c2n[nH]c3nc(-c4cccc(NC(C)=O)c4)ccc23)cc1 [APcK-105],Class III,no pinpoint plaque formed; also recorded: no plaques,PINPOINT PLAQUES,NO PLAQUES
Cc1ccc(-n2c(=O)[nH]c3c(C(N)=O)nc(-c4c(Cl)cccc4[N+](=O)[O-])nc32)cc1 [dm-I-193],Class III,,NO PLAQUES,SMALL PLAQUES

Structure (SMILES),Class category of infected monolayers in plaque assay,"Plaque phenotype due to drug treatment (FIGS. 1, 2, 4)",VACCINIA PLAQUE ASSAY 2,VACCINIA Plaque Assay
"O=C1NC(=O)/C(=C/c2ccc3c(c2)OC(F)(F)O3)S1 [AS-604850, reference compound]",Class III,,NO PLAQUES,NO PLAQUES
COc1ccccc1NS(=O)(=O)c1cccc(Nc2cc(-c3ccc(NC(=O)CCC(=O)O)cc3)ncn2)c1 [Eph2_wbz 117],Class III,,SMALL PLAQUES; COMETS?,NO PLAQUES
Cc1ccc(NC(=O)c2ccc(CN3CCN(CCF)CC3)cc2)cc1Nc1nccc(-c2cccnc2)n1 [STLF2],Class III,,NO PLAQUES,PIN POINT PLAQUES
COc1ccccc1NS(=O)(=O)c1cccc(Nc2cc(-c3ccc([N+](=O)[O-])cc3)ncn2)c1 [Eph2_wbz 103],Class III,,PINPOINT,NO PLAQUES
COc1ccccc1NS(=O)(=O)c1cccc(Nc2cc(-c3ccc(C(F)(F)F)cc3)ncn2)c1 [Eph2_wbz 107],Class II,,SMALLER PLAQUES THAN WT,SMALLER PLAQUES THAN WT
Cc1ccc(-n2c(=O)[nH]c3c(C(N)=O)nc(-c4ccc([N+](=O)[O-])cc4[N+](=O)[O-])nc32)cc1 [dm-I-180],,,,LARGE TAILS
"O=C1NC(=O)/C(=C/c2ccc3nccnc3c2)S1 [AS-604240, reference compound]",Class III,,PINPOINT PLAQUES,PINPOINT PLAQUES
Cc1ccc(-c2ccnc(Nc3cc(NC(=O)c4ccc(CN5CCN(C)CC5)cc4)ccc3C)n2)cn1 [WBZ-4],Class II,,SMALL PLAQUES,SMALL PLAQUES
COc1ccccc1NS(=O)(=O)c1cccc(NC(=O)CCOc2ccc3c(=O)[nH]ccc3c2)c1 [JAK2F],Class II,,SLIGHTLY SMALLER PLAQUES,SMALL PLAQUES
CCN(CC)CCNC(=O)/C=C\C(=O)Nc1ccc2ncnc(Nc3cccc(I)c3)c2c1 [JGAP-11],,,,MORE PLAQUES THAN WT
COc1ccccc1NS(=O)(=O)c1cccc(Nc2cc(-c3ccc(NC(C)=O)cc3)ncn2)c1 [Eph2_wbz 106],Class III,,SMALLER PLAQUES THAN WT,NO PLAQUES
CC(=O)Nc1ccc(-c2ccc3c(-c4ccc(C)c(F)c4)n[nH]c3n2)cc1 [APcK-28],,,SMALL PLAQUES,
Cc1ccc(-c2n[nH]c3nc(-c4ccc(C(=O)c5ccccc5)cc4)ccc23)cc1F [APcK-37],,,SMALL PLAQUES,
COc1cc(OC)cc(-c2ccc3c(-c4ccc(Cl)c(F)c4)n[nH]c3n2)c1 [APcK-111],Class III,pinpoint plaque formations; also recorded: pinpoint plaques,PINPOINT PLAQUES,PINPOINT PLAQUES
CN(C)CCCNC(=O)/C=C\C(=O)Nc1ccc2ncnc(Nc3cccc(I)c3)c2c1 [JGAP-13],,more plaque formations than wild type; also recorded: more plaques than WT,,MORE PLAQUES THAN WT
CC(=O)Nc1ccc(-c2ccc3c(-c4ccc(Br)cc4)n[nH]c3n2)cc1 [APcK-27],Class III,pinpoint plaque formations; also recorded: pinpoint plaques,SMALL PLAQUES,PINPOINT PLAQUES
O=C(Nc1cccc(-c2ccc3nnc(-c4ccco4)n3n2)c1)Sc1ccccc1 [LG2-79],Class II,,SMALL PLAQUES,"SMALLER PLAQUES, COMETS?"
Cc1ccc(NC(=O)c2ccc(CN3CCN(Cc4ccc(I)cc4)CC3)cc2)cc1Nc1nccc(-c2cccnc2)n1 [STLL3],Class III,,NO PLAQUES,PINPOINT PLAQUES
CC(=O)Nc1ccc(-c2ccc3c(-c4ccc(Cl)cc4Cl)n[nH]c3n2)cc1 [APcK-26],Class III,pinpoint plaque formations; also recorded: pinpoint plaques,SMALL PLAQUES,PINPOINT PLAQUES
COc1cc(OC)cc(-c2ccc3c(-c4ccc(F)c(C)c4)n[nH]c3n2)c1 [APcK-109],Class II,,"SMALL PLAQUES, LARGE TAILS",SLIGHTLY SMALLER PLAQUES
CCc1nnc2ccc(-c3cccc(NC(=O)c4ccc(OC)c(OC)c4)c3)nn12 [YYB41],Class II,,SMALL PLAQUES,SMALL PLAQUES
